This is an account of results in paper PMC4907692, “Engineering vanilloid-sensitivity into the rat TRPV2 channel” (eLife, 2016).

Where “and” joins values, the source holds several entries; their conditions need not be identical. Equal values may be shown once.

Assay [1] deals with T1, full-length 1D4-tagged TRPV1 (Rattus norvegicus, UniProt O35433).
T1 construct: made in house; host or cells: S. cerevisiae BJ5457, YEpHIS vector, PMA1 promoter; isolated membranes
As to the kind of experiment: 3H-RTx binding to S. cerevisiae membranes containing 1D4-tagged TRPV1. As to conditions: for Hill slope (nH): membranes. From the text:
The polymodal activation of TRPV1 has been widely conceptualized using allosteric models wherein binding of activators (such as vanilloids, protons, DkTx or voltage) are allosterically coupled to opening of the pore ([Brauchi et al., 2004]; [Jara-Oseguera et al., 2016]; [Matta and Ahern, 2007]). The allosteric nature of these interactions has begun to be explored using electrophysiological measurements of channel function ([Jara-Oseguera et al., 2016]; [Yao et al., 2010]), but has thus far not been investigated biochemically. We therefore tested whether binding of DkTx can enhance the affinity of TRPV1 for RTx, which would be predicted by an allosteric model wherein the two activators promote opening by binding more tightly to the open state. For these experiments we used a 1D4-tagged TRPV1 construct where expression in S. cerevisiae was driven by a constitutive promoter and we performed binding assays on yeast membranes where the vanilloid would have free access to the channel protein (see Methods). Under these conditions, we measured a Kd for RTx binding to 1D4-tagged TRPV1 of 0.6 nM under control conditions, about ten fold higher affinity than what we measured in intact cells using GFP-tagged TRPV1. When we measured the concentration-dependence of RTx binding to 1D4-tagged TRPV1 in the presence of DkTx, we observed that the tarantula toxin enhanced the affinity for RTx by about 3-fold (Figure 2A). The effects of DkTx were concentration-dependent (Figure 2B) and were observed independent of whether the binding assay was performed at 37°C (our standard temperature) or at 30°C (Figure 2A).
The full-length TRPV1 and TRPV2 channels with 1D4 affinity tags (TETSQVAPA) on their C-termini were cloned into the YEpHIS vector and expressed in the BJ5457 strain of S. cerevisiae using the strong constitutively active PMA1 promoter, as previously described ([Moiseenkova-Bell et al., 2008]). After 48 hr of expression at 30°C in YPD media, cells were harvested by centrifugation and re-suspended in PBS buffer, supplemented with complete protease inhibitor cocktail (Roche, Indianapolis, IN) and 4-amidinophenylmethanesulfonyl fluoride hydrochloride (APMSF) (Sigma-Aldrich, St. Louis, MO). Cells were broken by passing through an Avestin homogenizer at the pressure of 35 kpsi, cell lysate was cleared by centrifugation at 8,000 g for 15 min and membranes were isolated by ultracentrifugation at 190,000 g for 1 hr. Membrane pellets were re-suspended in PBS buffer supplemented with protease inhibitors and 200 mM sucrose, flash-frozen in liquid nitrogen and stored at -70°C until RTx binding measurements.
S. cerevisiae cells overexpressing TRPV1 constructs to be used in ligand binding assays on intact cells (Figure 1E,F) were grown as for small scale expression trials. 24 hr after protein induction cells were spun down at 4000g, the supernatant was removed and the pellet resuspended in 1x PBS, normalizing OD600 to 75 for each sample, and aliquoted for storage at -80°C. ^3H-RTx binding assays on cells were performed at 37°C as previously described ([Feng et al., 2015]), but where non-specific binding of RTx was measured using cells expressing GFP alone. The binding of RTx to TRPV1 and TRPV2 in membranes (e.g. Figure 2A,B and 5C) was performed at 37°C unless otherwise stated using membranes prepared from large scale protein preparations of S. cerevisiae containing rat TRPV1 and TRPV2 with a 1D4 tag expressed using a constitutive promoter as in [Moiseenkova-Bell et al., 2008]. Data for binding of RTx to membranes was corrected for non-specific binding, determined using either excess non-radioactive ligand or heat inactivation of the protein, as previously described ([Feng et al., 2015]). The TRPV1-activating double-knot toxin (DkTx) was produced recombinantly, folded in vitro and purified as previously described ([Bae et al., 2012]). Yeast membranes were incubated with DkTx solution for 1 hr at 4°C with gentle agitation prior to undertaking RTx binding assays. […]

The next assay addresses T2, WT TRPV1 (Rattus norvegicus, UniProt O35433).
T2 construct: expressed in transfected cells; host or cells: Xenopus oocytes (cRNA injection, pGEM-HE)
The assay can be described thus: Two-electrode voltage-clamp in Xenopus oocytes, WT TRPV1. As to conditions: 100 nM RTx, +60 and -60 mV. It is filed as cell-based. From the text: (§1) To further investigate the putative vanilloid binding pocket in TRPV1, we inspected the cryo-EM structure of TRPV1, looking for residues that are located nearby to the putative RTx density (Figure 1B; regions/residues highlighted in yellow) and that differ between TRPV1 and TRPV2 channels (Figure 3—figure supplement 1; regions highlighted in magenta). […] To quantify the contribution of each of these residues to TRPV1 channel activation by RTx under our experimental conditions, we mutated each to the corresponding residue in TRPV2. We then expressed each construct in oocytes and used the two electrode voltage-clamp technique to study activation by RTx and by the non-specific TRPV channel activator 2-APB. We recorded time courses for channel activation by each agonist while stepping the membrane potential from −60 to +60 mV every 3 s from a holding potential of 0 mV using an external recording solution containing 100 mM KCl (internal K^+ concentration in a healthy oocyte is 100 mM) (Figure 3A, left). We also recorded current-voltage (I-V) relations by stepping over a wider range of voltages in the absence and presence of activators, or in the presence of ruthenium red (RR), a non-specific inhibitor of TRP channels (Figure 3A, right).
The WT rat TRPV1 and TRPV2 channels in the pcDNA3.1 vector were kindly provided by Dr. David Julius (UCSF) ([Caterina et al., 1997]; [Caterina et al., 1999]) and subcloned into the pGEM-HE vector ([Liman et al., 1992]). Mutations were introduced into rTRPV1 using a two-step PCR mutagenesis technique and the resulting constructs were verified by sequencing. All channel constructs were expressed in Xenopus oocytes and studied following 1–4 days incubation after cRNA injection (incubated at 17°C in 96 mM NaCl, 2 mM KCl, 5 mM HEPES, 1 mM MgCl2 and 1.8 mM CaCl2, 50 μg/ml gentamycin, pH 7.6 with NaOH) using the two-electrode voltage-clamp recording technique (OC-725C, Warner Instruments, Hamden, CT) with a 150 μl recording chamber. Data were filtered at 1–3 kHz and digitized at 20 kHz using pClamp software (Molecular Devices, Sunnyvale, CA). […]

Another assay concerns the target T3, TRPV1 S512F/M547L (Rattus norvegicus, UniProt O35433, M547L/S512F).
T3 construct: expressed in transfected cells; host or cells: Xenopus oocytes (cRNA injection)
The assay can be described thus: Two-electrode voltage-clamp in Xenopus oocytes, TRPV1 S512F/M547L. It is filed as cell-based. As to conditions: 100 nM RTx.
Text: as §1, with “right). […]” for “right).”

T1 sequence (O35433 whole entry): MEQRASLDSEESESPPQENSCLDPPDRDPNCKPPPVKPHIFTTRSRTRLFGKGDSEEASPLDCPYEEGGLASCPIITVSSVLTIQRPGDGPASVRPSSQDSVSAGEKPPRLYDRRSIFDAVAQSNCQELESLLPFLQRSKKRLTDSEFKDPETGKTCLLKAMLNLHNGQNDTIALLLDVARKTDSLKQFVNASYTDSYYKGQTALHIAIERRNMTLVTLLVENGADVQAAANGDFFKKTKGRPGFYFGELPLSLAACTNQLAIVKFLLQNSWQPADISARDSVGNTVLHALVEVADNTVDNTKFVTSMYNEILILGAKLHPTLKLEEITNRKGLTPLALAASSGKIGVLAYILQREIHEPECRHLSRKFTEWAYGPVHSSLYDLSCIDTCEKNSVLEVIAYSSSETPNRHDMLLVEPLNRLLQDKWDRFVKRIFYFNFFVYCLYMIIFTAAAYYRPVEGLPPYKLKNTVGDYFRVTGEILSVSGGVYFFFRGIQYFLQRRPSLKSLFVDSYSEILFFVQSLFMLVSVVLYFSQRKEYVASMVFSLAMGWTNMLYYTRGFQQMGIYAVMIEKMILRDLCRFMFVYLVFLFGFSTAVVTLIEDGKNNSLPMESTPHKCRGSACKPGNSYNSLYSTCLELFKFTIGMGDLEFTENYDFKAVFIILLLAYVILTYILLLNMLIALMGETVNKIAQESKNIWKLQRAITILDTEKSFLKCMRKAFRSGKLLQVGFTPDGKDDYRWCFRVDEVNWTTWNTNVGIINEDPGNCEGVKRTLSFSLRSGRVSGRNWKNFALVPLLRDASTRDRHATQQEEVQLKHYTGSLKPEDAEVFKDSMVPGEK
T2 sequence (O35433 whole entry): as above
T3 sequence (O35433 whole entry S512F/M547L): as the sequence (O35433 whole entry) above, with S512F, M547L counted along it

On to `C=C(C)[C@]12C[C@@H](C)[C@@]34O[C@](Cc5ccccc5)(O[C@@H]1[C@@H]3C=C(COC(=O)Cc1ccc(O)c(OC)c1)C[C@]1(O)C(=O)C(C)=C[C@@H]41)O2` [RTx, resiniferatoxin], for which the Kd in assay [1] (Kd of 3H-RTx binding (Hill fit)) was 530 pM and 800 pM. Besides, the “Hill slope (nH)” value in assay [1] (control (no DkTx), 30°C) is listed as 1.1; in assay [1] (control (no DkTx), 37°C), 1.24; in assay [1] (in the presence of DkTx (0.7 µM), 30°C) it was 1; in assay [1] (in the presence of DkTx (0.7 µM), 37°C), 0.92. The results for the “channel activation by RTx” value on WT TRPV1 and on TRPV1 S512F/M547L were “effectively irreversible activation” and “lost sensitivity”, respectively.
